# Experiments:
# Test in all cases: In vitro antibacterial activity, agar dilution MIC
# Type in all cases: cell-based
# Candida albicans CCH 442 = Candida albicans CCH 442 (organism code TT); BHI agar, 35-37 °C, 20 to 24 hours; unit assumed
# Method: (§1) Representative compounds of the present invention were assayed in vitro for antibacterial activity as follows: Twelve petri dishes containing successive aqueous dilutions of the test compound mixed with 10 mL of sterilized Brain Heart infusion (BHI) agar (Difco 0418-01-5) were prepared. Each plate was inoculated with 1:100 (or 1:10 for slow-growing strains, such as Micrococcus and Streptococcus) dilutions of up to 32 different microorganisms, using a Steers replicator block. […] In addition, a control plate, using BHI agar containing no test compound, was prepared and incubated at the beginning and end of each test.
# (§2) An additional plate containing a compound having known susceptibility patterns for the organisms being tested and belonging to the same antibiotic class as the test compound was also prepared and incubated as a further control, as well as to provide test-to-test comparability.
# (§3) After incubation, each plate was visually inspected. The minimum inhibitory concentration (MIC) was defined as the lowest concentration of drug yielding no growth, a slight haze, or sparsely isolated colonies on the inoculum spot as compared to the growth control.
# [1] = test system: Enterococcus faecium ATCC 8043; details: Enterococcus faecium ATCC 8043 (organism code II); BHI agar, 35-37 °C, 20 to 24 hours; unit assumed
# Method: as §1, §2, §3
# Escherichia coli DC-2 = Escherichia coli DC-2 (organism code SS); BHI agar, 35-37 °C, 20 to 24 hours; unit assumed
# Method: as §1, §2, §3
# Escherichia coli JUHL = Escherichia coli JUHL (organism code QQ); BHI agar, 35-37 °C, 20 to 24 hours; unit assumed
# Method: as §1, §2, §3
# Escherichia coli SS = Escherichia coli SS (organism code RR); BHI agar, 35-37 °C, 20 to 24 hours; unit assumed
# Method: as §1, §2, §3
# [2] = test system: Haemophilis Influenzae DILL AMP R; details: Haemophilis Influenzae DILL AMP R (organism code WW); BHI agar, 35-37 °C, 20 to 24 hours; unit assumed
# Method: as §1, §2, §3
# [3] = test system: Micrococcus luteus ATCC 4698; details: Micrococcus luteus ATCC 4698 (organism code PP); BHI agar, 35-37 °C, 20 to 24 hours; unit assumed
# Method: as §1, §2, §3
# [4] = test system: Micrococcus luteus ATCC 9341; details: Micrococcus luteus ATCC 9341 (organism code OO); BHI agar, 35-37 °C, 20 to 24 hours; unit assumed
# Method: as §1, §2, §3
# [5] = test system: Mycobacterium smegmatis ATCC 114; details: Mycobacterium smegmatis ATCC 114 (organism code UU); BHI agar, 35-37 °C, 20 to 24 hours; unit assumed
# Method: as §1, §2, §3
# [6] = test system: Nocardia Asteroides ATCC9970; details: Nocardia Asteroides ATCC9970 (organism code VV); BHI agar, 35-37 °C, 20 to 24 hours; unit assumed
# Method: as §1, §2, §3
# [7] = test system: Staphylococcus aureus 1775; details: Staphylococcus aureus 1775 (organism code GG); BHI agar, 35-37 °C, 20 to 24 hours; unit assumed
# Method: as §1, §2, §3
# [8] = test system: Staphylococcus aureus A-5278; details: Staphylococcus aureus A-5278 (organism code CC); BHI agar, 35-37 °C, 20 to 24 hours; unit assumed
# Method: as §1, §2, §3
# [9] = test system: Staphylococcus aureus A5177; details: Staphylococcus aureus A5177 (organism code BB); BHI agar, 35-37 °C, 20 to 24 hours; unit assumed
# Method: as §1, §2, §3
# [10] = test system: Staphylococcus aureus ATCC 6538P; details: Staphylococcus aureus ATCC 6538P (organism code AA); BHI agar, 35-37 °C, 20 to 24 hours; unit assumed
# Method: as §1, §2, §3
# [11] = test system: Staphylococcus aureus CMX 553; details: Staphylococcus aureus CMX 553 (organism code FF); BHI agar, 35-37 °C, 20 to 24 hours; unit assumed
# Method: as §1, §2, §3
# [12] = test system: Staphylococcus aureus CMX 642A; details: Staphylococcus aureus CMX 642A (organism code DD); BHI agar, 35-37 °C, 20 to 24 hours; unit assumed
# Method: as §1, §2, §3
# [13] = test system: Staphylococcus aureus NCTC10649M; details: Staphylococcus aureus NCTC10649M (organism code EE); BHI agar, 35-37 °C, 20 to 24 hours; unit assumed
# Method: as §1, §2, §3
# [14] = test system: Staphylococcus epidermidis 3519; details: Staphylococcus epidermidis 3519 (organism code HH); BHI agar, 35-37 °C, 20 to 24 hours; unit assumed
# Method: as §1, §2, §3
# [15] = test system: Streptococcus Pheumoniae 5649; details: Streptococcus Pheumoniae 5649 (organism code ZZA); BHI agar, 35-37 °C, 20 to 24 hours; unit assumed
# Method: as §1, §2, §3
# [16] = test system: Streptococcus Pheumoniae 5979; details: Streptococcus Pheumoniae 5979 (organism code ZZ); BHI agar, 35-37 °C, 20 to 24 hours; unit assumed
# Method: as §1, §2, §3
# [17] = test system: Streptococcus Pheumoniae ATCC6303; details: Streptococcus Pheumoniae ATCC6303 (organism code XX); BHI agar, 35-37 °C, 20 to 24 hours; unit assumed
# Method: as §1, §2, §3
# [18] = test system: Streptococcus Pheumoniae GYR 1171; details: Streptococcus Pheumoniae GYR 1171 (organism code YY); BHI agar, 35-37 °C, 20 to 24 hours; unit assumed
# Method: as §1, §2, §3
# [19] = test system: Streptococcus agalactiae CMX 508; details: Streptococcus agalactiae CMX 508 (organism code KK); BHI agar, 35-37 °C, 20 to 24 hours; unit assumed
# Method: as §1, §2, §3
# [20] = test system: Streptococcus bovis A-5169; details: Streptococcus bovis A-5169 (organism code JJ); BHI agar, 35-37 °C, 20 to 24 hours; unit assumed
# Method: as §1, §2, §3
# [21] = test system: Streptococcus pyogenes 930; details: Streptococcus pyogenes 930 (organism code MM); BHI agar, 35-37 °C, 20 to 24 hours; unit assumed
# Method: as §1, §2, §3
# [22] = test system: Streptococcus pyogenes EES61; details: Streptococcus pyogenes EES61 (organism code LL); BHI agar, 35-37 °C, 20 to 24 hours; unit assumed
# Method: as §1, §2, §3
# [23] = test system: Streptococcus pyogenes PIU 2548; details: Streptococcus pyogenes PIU 2548 (organism code NN); BHI agar, 35-37 °C, 20 to 24 hours; unit assumed
# Method: as §1, §2, §3
SMILES,MIC (Candida albicans CCH 442) [µg/mL],MIC [1] [µg/mL],MIC (Escherichia coli DC-2) [µg/mL],MIC (Escherichia coli JUHL) [µg/mL],MIC (Escherichia coli SS) [µg/mL],MIC [2] [µg/mL],MIC [3] [µg/mL],MIC [4] [µg/mL],MIC [5] [µg/mL],MIC [6] [µg/mL],MIC [7] [µg/mL],MIC [8] [µg/mL],MIC [9] [µg/mL],MIC [10] [µg/mL],MIC [11] [µg/mL],MIC [12] [µg/mL],MIC [13] [µg/mL],MIC [14] [µg/mL],MIC [15] [µg/mL],MIC [16] [µg/mL],other results
"C=CCN(C)[C@H]1C[C@@H](C)O[C@@H](O[C@@H]2[C@@H](C)C(=O)[C@@H](C)C(=O)O[C@H](CC)[C@@]3(C)OC(=O)N[C@@H]3[C@@H](C)C(=O)[C@H](C)C[C@@]2(C)OCC=Cc2cnc3ccccc3c2)[C@@H]1O [Example 6, Compound of Formula (II); R is -CH2CH=CH-(3-quinolyl), R^p is H, W is absent, R^w is H, R^1 is CH2CH=CH2, R^2 is CH3]",> 100,0.05,100,50,0.2,4,0.2,0.02,0.2,0.1,> 100,> 100,0.05,0.05,0.05,0.1,0.05,0.2,0.25,16,MIC [17]: ≤ 0.004 µg/mL; MIC [18]: ≤ 0.004 µg/mL; MIC [19]: 0.05 µg/mL; MIC [20]: 0.02 µg/mL; MIC [21]: 3.1 µg/mL; MIC [22]: 0.02 µg/mL; MIC [23]: 0.2 µg/mL
"CC[C@H]1OC(=O)[C@H](C)C(=O)[C@H](C)[C@@H](O[C@@H]2O[C@H](C)C[C@H](N(C)CCF)[C@H]2O)[C@](C)(OCC=Cc2cnc3ccccc3c2)C[C@@H](C)C(=O)[C@H](C)[C@H]2NC(=O)O[C@@]21C [Example 7, Compound of Formula (II); R is -CH2CH=CH-(3-quinolyl), R^p is H, W is absent, R^w is H, R^1 is CH2CH2F, R^2 is CH3]",> 100,0.05,> 100,> 100,0.39,8,0.39,0.05,1.56,0.39,> 100,> 100,0.2,0.1,0.05,0.1,0.1,0.2,0.25,16,MIC [17]: 0.03 µg/mL; MIC [18]: 0.03 µg/mL; MIC [19]: 0.05 µg/mL; MIC [20]: 0.01 µg/mL; MIC [21]: 12.5 µg/mL; MIC [22]: 0.01 µg/mL; MIC [23]: 0.39 µg/mL
CC[C@H]1OC(=O)[C@H](C)C(=O)[C@H](C)[C@@H](O[C@@H]2O[C@H](C)C[C@H](N(C)Cc3ccccc3)[C@H]2O)[C@](C)(OCC=Cc2cnc3ccccc3c2)C[C@@H](C)C(=O)[C@H](C)[C@H]2NC(=O)O[C@@]21C [Example 8],> 100,0.1,> 100,> 100,0.78,4,0.05,0.05,0.39,0.2,> 100,> 100,0.2,0.2,0.2,0.2,0.2,0.2,0.5,> 128,MIC [17]: 0.03 µg/mL; MIC [18]: 0.03 µg/mL; MIC [19]: 0.02 µg/mL; MIC [20]: 0.02 µg/mL; MIC [21]: > 100 µg/mL; MIC [22]: 0.02 µg/mL; MIC [23]: 0.2 µg/mL
"CC[C@H]1OC(=O)[C@H](C)C(=O)[C@H](C)[C@@H](O[C@@H]2O[C@H](C)C[C@H](N(C)CC#N)[C@H]2O)[C@](C)(OCC=Cc2cnc3ccccc3c2)C[C@@H](C)C(=O)[C@H](C)[C@H]2NC(=O)O[C@@]21C [Example 9, Compound of Formula (II); R is -CH2CH=CH-(3-quinolyl), R^p is H, W is absent, R^w is H, R^1 is CH2-CN, R^2 is CH3-]",> 100,0.1,> 100,> 100,0.2,8,0.2,0.02,12.5,0.78,> 100,> 100,0.1,0.1,0.05,0.1,0.1,0.2,0.5,128,MIC [17]: 0.03 µg/mL; MIC [18]: 0.03 µg/mL; MIC [19]: 0.01 µg/mL; MIC [20]: 0.01 µg/mL; MIC [21]: 12.5 µg/mL; MIC [22]: 0.01 µg/mL; MIC [23]: 0.39 µg/mL
"CC[C@H]1OC(=O)[C@H](C)C(=O)[C@H](C)[C@@H](O[C@@H]2O[C@H](C)C[C@H](N(C)CC3CC3)[C@H]2O)[C@](C)(OCC=Cc2cnc3ccccc3c2)C[C@@H](C)C(=O)[C@H](C)[C@H]2NC(=O)O[C@@]21C [Example 15, Compound of Formula (II); R is -CH2CH=CH-(3-quinolyl), R^p is H, W is absent, R^w is H, R^1 is CH2-(cyclo-C3H5), R^2 is CH3]",> 100,0.05,> 100,> 100,0.2,8,0.39,0.05,0.78,0.2,> 100,> 100,0.39,0.39,0.39,0.39,0.39,0.39,0.25,> 128,MIC [17]: 0.03 µg/mL; MIC [18]: 0.03 µg/mL; MIC [19]: 0.05 µg/mL; MIC [20]: 0.02 µg/mL; MIC [21]: 25 µg/mL; MIC [22]: 0.02 µg/mL; MIC [23]: 0.1 µg/mL

# Source: patent EP1025114B1, “3'-N-MODIFIED 6-O-SUBSTITUTED ERYTHROMYCIN KETOLIDE DERIVATIVES HAVING ANTIBACTERIAL ACTIVITY” (priority 1997, dated 1999)
